Experimental data taken from patent US9526720B2, “Modulators of hepatic lipoprotein metabolism” (The Broad Institute, Inc., priority 2012, dated 2016).
“Also recorded” adds a separate entry of the source.

Legend:
[1] = tested on: LDLR; assay: qPCR LDLR expression in HepG2 cells; assay type: cell-based, human; details: for LDLR expression (in words): HepG2, qPCR; for qPCR LDLR: HepG2 cells
Procedure: (§1) In the primary screen, HepG2 cells were plated in 384-well plates at 2000 cells per well and incubated for 20 hours with each compound in duplicate at 10 microM concentration. Then RNA was isolated, reverse-transcribed to cDNA, and stored at −80° C. Expression levels of TRIB1 and other target genes, such as SORT1 and PCSK9, were determined by quantitative PCR. Relative gene expression level was normalized to expression of the housekeeping gene, GAPDH. A “hit” was defined as those compounds that caused a greater than 2-fold increase in relative target gene expression when normalized to GAPDH expression, compared to DMSO-treated control. Using these criteria, 130 hits were identified for TRIB1 (0.8% hit rate).
(§2) Further analysis of the expression levels of various proteins in the cholesterol and triglyceride biosynthetic pathways in response to TRIB1 inducer treatment was performed. In particular, transcript levels of additional lipoprotein metabolism pathway proteins SCAP, SREBF1, SREBF2, HMGCR, HMGCS, SCD1, FASN and MTTP were assessed by qPCR, along with TRIB1, LDLR, and PCSK9. The gene expression profile for the same subset of genes was also assessed after treatment with the statin atorvastatin (Lipitor), commonly used in therapy for hypercholesterolemia and other cardiovascular diseases.
(§3) The kinetics of the modulation of TRIB1, LDLR, PCSK9 and MTTP gene expression after treatment by select TRIB1 inducer compounds was monitored by qPCR analysis (FIG. 4). RNA was extracted from cells at various timepoints over 28 hours of treatment (0, 2, 4, 6, 8, 24, 28 hours). Specifically, compounds 12a and 14a induced transcriptional responses over time similar to those produced by berberine, a plant alkaloid used in Chinese medicine. […] Both compound 12a and compound 14a induce TRIB1 and LDLR and repress PCSK9 and MTTP expression with similar kinetics and similar fold change as berberine Importantly, both compounds induce these gene expression changes at much lower concentrations than berberine. […] This increased potency indicates the potential therapeutic efficacy of such compounds for treatment of cardiovascular diseases, particularly hypercholesterolemia and related conditions.

[2] = tested on: ApoB; assay: ELISA of secreted ApoB in HepG2 cells; assay type: cell-based, human; details: for secretion of apoB into the media / ApoB levels (in words): HepG2; for ELISA ApoB: HepG2 cells
Procedure: (§4) Additional secondary assays were performed in HepG2 cells to further characterize the cellular response to treatment with select confirmed TRIB1 inducer hits. The results of the ELISA, CTG, and qPCR secondary assays are summarized in Table B. For all secondary assays, the experiments were performed using powders of freshly purified compounds.
(§5) To further characterize the relationship of TRIB1 induction and PCSK9 reduction, ELISAs were performed to measure the levels of secreted ApoB, PCSK9, and LDLR. […] As predicted treatment with TRIB1 inducer hits caused a decrease in ApoB levels detected by ELISA. In parallel effort, 3200 BIOA and NATP compounds were screened for PCSK9 expression inhibitors. Hits were defined as inducing greater than 3-fold downregulation of PCSK9, and 3.8% of the screened compounds were confirmed as hits. […] In further experiments, a strong correlation was confirmed between TRIB1 induction and PCSK9 repression in DOS Collection hits. ELISA analysis confirmed that treatment with TRIB1 inducers reduced the PCSK9 protein levels. LDLR protein levels were also analyzed by ELISA to determine whether compounds that modulate both TRIB1 and PCSK9 had any effect on LDLR protein levels.

[3] = tested on: HMGCR; assay: qPCR HMGCR transcript level in HepG2 cells; assay type: cell-based, human
Procedure: as §1, §2

[4] = tested on: TRIB1; assay: qPCR TRIB1 expression in HepG2 cells; assay type: cell-based, human; details: for TRIB1 expression (in words) / potency relative to berberine: HepG2; for TRIB1 expression (in words): qPCR; for fold induction at 10 µM: Homo sapiens, 20 h, HepG2 cells; for potency relative to berberine: TRIB1, LDLR, PCSK9 and MTTP gene expression changes
Procedure: as §1, §2, §3

[5] = tested on: PCSK9; assay: ELISA of secreted PCSK9 protein in HepG2 cells; assay type: cell-based, human; details: for ELISA PCSK9: HepG2 cells; for inhibition of secretion of PCSK9 protein into the media: at the maximal dose tested, HepG2
Procedure: as §4, §5

[6] = tested on: HepG2 cells; assay: BODIPY-FL LDL uptake in HepG2 cells (high content microscopy); assay type: cell-based, human; details: treated 20 hours; BODIPY-FL LDL uptake monitored 5 hours
Procedure: TRIB1 inducers increase the rate of LDL uptake. HepG2 cells grown under standard culture conditions (10% FBS) were treated for 20 hours with compounds 2a, 14a and 12a at indicated concentrations and the uptake of BODIPY-FL conjugated LDL particles was monitored for 5 hours using high content microscopy. To control for regulation of LDL uptake by cholesterol, cells were grown in media depleted for (0.5% LPDS—lipoprotein deficient serum) or supplemented with cholesterol (0.5% LPDS plus cholesterol ([…] cholesterol and […] 25-OH cholesterol)).

[7] = tested on: PCSK9; assay: qPCR PCSK9 expression in HepG2 cells; assay type: cell-based, human; details: for PCSK9 expression (in words) / inhibition of expression of PCSK9 mRNA: HepG2; for PCSK9 expression (in words): qPCR; for fold induction at 10 µM: Homo sapiens, 20 h, HepG2 cells; for inhibition of expression of PCSK9 mRNA: at the maximal dose tested
Procedure: as §1, §2, §3

[8] = tested on: SCAP; assay: qPCR SCAP transcript level in HepG2 cells; assay type: cell-based, human; parameters: key: A: Increase <2-fold; B: Increase >2-fold; X: Decrease <2-fold; Y: Decrease >2-fold; No significant change
Procedure: as §1, §2

[9] = tested on: SREBF2; assay: qPCR SREBF2 transcript level in HepG2 cells; assay type: cell-based, human; parameters: key: A: Increase <2-fold; B: Increase >2-fold; X: Decrease <2-fold; Y: Decrease >2-fold; No significant change
Procedure: as §1, §2

[10] = tested on: LDLR; assay: qPCR LDLR expression in HepG2 cells; assay type: cell-based, human; details: for induction of LDLR expression in combination with simvastatin (in words): overnight simvastatin, then compound
[11] = tested on: HMGCS; assay: qPCR HMGCS transcript level in HepG2 cells; assay type: cell-based; details: Homo sapiens, 20 h
Procedure: as §1, §2

[12] = tested on: HepG2 cells; assay: Cell Titer Glo (CTG) cell viability assay; assay type: cell-based, human; parameters: key: A: Increase <2-fold; B: Increase >2-fold; X: Decrease <2-fold; Y: Decrease >2-fold; No significant change; details: cell viability (ATP)
Procedure: Cell viability was determined using a Cell Titer Glo (CTG) assay ([…]) after treatment with TRIB1 inducer compounds. In this assay, the number of viable cells in culture is based on quantitation of ATP, which indicates metabolically active cells. Addition of the reagent results in cell lysis and generation of a luminescent signal proportional to the amount of ATP present, which is directly proportional to the number of viable, metabolically active cells present in culture. Most TRIB1 inducer compounds had no significant effect on cell viability.

[13] = tested on: APOC3; assay: Transcriptional profiling of APOC3 gene in HepG2 cells; assay type: cell-based, human; details: 10 μM, 24 hours
Excerpt: Expression of APOC3 is associated with increased levels of triglycerides in plasma and carriers of APOC3 gene null mutation have low levels of triglycerides and are protected from cardiovascular disease (Pollin et al., Science, 322:1702, 2008).

[14] = tested on: SCD1; assay: qPCR SCD1 transcript level in HepG2 cells; assay type: cell-based; details: Homo sapiens, 20 h
Procedure: as §1, §2

[15] = tested on: SREBF1; assay: qPCR SREBF1 transcript level in HepG2 cells; assay type: cell-based, human; parameters: key: A: Increase <2-fold; B: Increase >2-fold; X: Decrease <2-fold; Y: Decrease >2-fold; No significant change
Procedure: as §1, §2

[16] = tested on: LDLR; assay: ELISA of LDLR protein in HepG2 cells; assay type: cell-based, human; details: for increase of the LDL receptor protein in the cell: HepG2; for ELISA LDLR: HepG2 cells
Procedure: as §4, §5

[17] = tested on: FASN; assay: qPCR FASN transcript level in HepG2 cells; assay type: cell-based; details: Homo sapiens, 20 h
Procedure: as §1, §2

[18] = tested on: MTTP; assay: qPCR MTTP expression in HepG2 cells; assay type: cell-based, human; details: 28 hour time course
Procedure: as §2
The kinetics of the modulation of TRIB1, LDLR, PCSK9 and MTTP gene expression after treatment by select TRIB1 inducer compounds was monitored by qPCR analysis (FIG. 4). RNA was extracted from cells at various timepoints over 28 hours of treatment (0, 2, 4, 6, 8, 24, 28 hours). Specifically, compounds 12a and 14a induced transcriptional responses over time similar to those produced by berberine, a plant alkaloid used in Chinese medicine. […] Both compound 12a and compound 14a induce TRIB1 and LDLR and repress PCSK9 and MTTP expression with similar kinetics and similar fold change as berberine Importantly, both compounds induce these gene expression changes at much lower concentrations than berberine. […]

[19] = tested on: TRIB1; assay: qPCR TRIB1 expression in HepG2 cells; assay type: cell-based; details: Homo sapiens, HepG2; induction of TRIB1 and LDLR transcript levels; read-out: half maximal effective concentration (EC50)

Structure (SMILES) | LDLR expression (in words) [1] | qPCR LDLR [1] | secretion of apoB into the media / ApoB levels (in words) [2] | ELISA ApoB [2] | qPCR HMGCR [3] | TRIB1 expression (in words) [4] | fold induction at 10 µM [4] | ELISA PCSK9 [5] | inhibition of secretion of PCSK9 protein into the media [5] | rate of LDL uptake (in words) [6] | PCSK9 expression (in words) [7] | fold induction at 10 µM [7] | inhibition of expression of PCSK9 mRNA [7] | expression of PCSK9 stimulated by pretreatment with atorvastatin (in words) [7] | qPCR SCAP [8] | qPCR SREBF2 [9] | induction of LDLR expression in combination with simvastatin (in words) [10] | fold induction at 10 µM [11] | CTG [12] | expression of APOC3 gene (in words) [13] | also measured
CN1C(=O)c2cc(NC(=O)c3ccc(C(F)(F)F)cc3)ccc2OC[C@@H]2O[C@@H](CC(=O)NC3Cc4ccccc4C3)CC[C@@H]21 [Compound 2a] | induction of LDLR expression; also recorded: robustly induced | B (Increase >2-fold) | inhibited secretion of apoB | Y (Decrease >2-fold) | Y (Decrease >2-fold) | robustly induced | > 2 | Y (Decrease >2-fold) | 70% | robust increase | strongly reduced | > 2 | 70% | potently reduced | N | N | additive effect | > 2 | N | down regulates | fold induction at 10 µM [14]: > 2; qPCR SREBF1 [15]: N; increase of the LDL receptor protein in the cell [16]: 3 fold; ELISA LDLR [16]: B (Increase >2-fold); fold induction at 10 µM [17]: > 2
CN(C)c1ccc2c(c1)[C@@H]1C[C@@H](CC(=O)NCc3ccc(Oc4ccccc4)cc3)O[C@@H](CO)[C@@H]1O2 [Compound 12a] | induction of LDLR expression; also recorded: induce; also recorded: robustly induced | A (Increase <2-fold) | inhibited secretion of apoB | Y (Decrease >2-fold) | Y (Decrease >2-fold) | induce; also recorded: robustly induced | < 2 | Y (Decrease >2-fold) | 70% | robust increase | repress; also recorded: strongly reduced | > 2 | 70% | potently reduced | X (Decrease <2-fold) | Y (Decrease >2-fold) | additive effect | > 2 | N | down regulates | MTTP expression (in words) [18]: repress; potency relative to berberine [4]: 5 fold; fold induction at 10 µM [14]: > 2; qPCR SREBF1 [15]: Y (Decrease >2-fold); increase of the LDL receptor protein in the cell [16]: 3 fold; ELISA LDLR [16]: B (Increase >2-fold); fold induction at 10 µM [17]: > 2
CN1C(=O)c2cc(NC(=O)c3ccc(C(F)(F)F)cc3)ccc2OC[C@@H]2O[C@H](CC(=O)NC3Cc4ccccc4C3)CC[C@@H]21 [Compound 14a] | induce; also recorded: robustly induced |  |  |  |  | induce; also recorded: robustly induced |  |  |  | robust increase | repress; also recorded: strongly reduced |  |  | potently reduced |  |  | additive effect |  |  |  | MTTP expression (in words) [18]: repress; EC50 ([1]; Homo sapiens, HepG2, 6 h, read-out: qPCR 6Hr (EC50 uM) LDLR up-regulation): 0.51 to 1 µM; EC50 ([2]; Homo sapiens, HepG2, 24 h, read-out: ELISA 24 Hr (EC50 uM) ApoB decrease): 1.1 to 2 µM; potency relative to berberine [4]: 10 fold; EC50 ([5]; Homo sapiens, HepG2, 24 h, read-out: ELISA 24 Hr (EC50 uM) PCSK9 decrease): 0.51 to 1 µM; decrease of PCSK9 mRNA below the level induced by cholesterol starvation ([7]; 2.5 μM, 0.5% LPDS, 24 h): 3.8 fold; LDLR signal over the non-depleted control ([10]; 2.5 μM, 0.5% LPDS, 24 h): 9 fold; EC50 [19]: < 1000 nM
